Key:
[1] = test system: lymph node cells obtained from cancer patients; assay: Proliferation of cancer patients' lymph node cells stimulated with autologous tumor cells (3H-thymidine); type: cell-based, human; details: antibody 1 μg/mL (6.7 nM); 3H-thymidine 96 hours later
Source text: (§1) Effects of a human anti-CD40 antibody (21.4.1) on lymph node cells obtained from cancer patients stimulated with autologous tumor cells was examined.
(§2) Lymph node cells and tumors were collected from patients with renal cell carcinoma, non-small cell lung cancer, transitional cell carcinoma of the bladder, colon cancer, prostate cancer, and head and neck cancer. The lymph node cells were placed into culture together with irradiated collagenase treated tumors (recovered from the same patient) in the presence or absence of 21.4.1 (1 μg/mL; 6.7 nM). Proliferation was assessed using ^3H-thymidine 96 hours later. The number of INFγ producing cells was assessed by ELISPOT, following restimulation.

B cell lymphoma Daudi = assay: Mortality in systemic Daudi B cell lymphoma model; type: in vivo, human tumor in SCID-beige mice; details: Daudi IV; single IP injection; monitored for 58 days
Method: The ability of an anti-CD40 antibody according to the invention (21.4.1) to delay mortality in a CD40(+) systemic tumor model using a B cell lymphoma was assessed.
SCID-beige mice were injected IV with the B cell lymphoma Daudi (ATCC CCL-213). 21.4.1 was administered as a single injection (IP) at the time of tumor injection. Mortality was monitored for 58 days.

[2] = test system: CD40(−) colon carcinoma, Lovo; assay: CD40(−) Lovo colon carcinoma growth in SCID-beige mice; type: in vivo, human tumor in SCID-beige mice; details: in the absence of immune cells
Method: The effects of a CD40 antibody (21.4.1) on the growth of CD40(−) tumors (e.g., erythroleukemia and colon carcinoma) were examined. In particular, K562 tumors were chosen to assess the efficacy of 21.4.1 against a CD40(−) low immunogenic (class I and II negative) tumor.
SCID-beige mice were injected SC with the CD40(−) erythroleukemic tumor, K562 (ATCC CCL-243) alone or in the presence of human peripheral blood T cells and DCs. Animals received a single IP injection of 21.4.1 either at the time of tumor injection or 5 days later using various dose levels.
The amount of 21.4.1 to cause a 50% inhibition of tumor growth was 0.005 mg/kg corresponding to a Cmax serum concentration of 0.05 μg/mL. […] The results were identical when 21.4.1 was administered on Day 0 or Day +5 relative to tumor challenge. The growth of these CD40(−) tumors was not inhibited by 21.4.1 in the absence of immune cells.

[3] = molecular target: T1, CD40 receptors on human leukocytes (Homo sapiens, UniProt P25942); assay: 125I-21.4.1 binding to CD40 receptors on human leukocytes; details: 500-fold excess unlabeled 21.4.1; total % specific binding minus % binding to FcR
T1 construct: Human leukocytes from normal donors or cynomolgus leukocytes were isolated from whole blood; endogenous in cells; host or cells: human peripheral blood leukocytes from normal donors
Method: (§3) The binding of 21.4.1 to Fc receptors (FcR) on human or cynomolgus peripheral blood leukocytes was determined by using ^125I-21.4.1 and a human IgG1 control mAb. Human leukocytes from normal donors or cynomolgus leukocytes were isolated from whole blood using plasma gel and washed thoroughly to allow dissociation of receptor-bound serum immunoglobulins. Centrifugation through a sucrose cushion was used to separate cell-bound and free antibodies. Studies were performed at 4° C. in the presence of sodium azide to prevent receptor internalization.
(§4) 21.4.1 was tested for specific binding to FcR by using excess unlabeled human IgG2 isotype matched antibody as a competitor. ^125I-21.4.1 specific binding to FcR on human leukocytes (n=5 donors) was −1.0±8.5%, and specific binding to FcR on cynomolgus leukocytes (n=4) was 15±13%. […] The specific binding of the IgG1 control antibody to FcR on human and cynomolgus leukocytes accounted for 56% and 51% of the total bound radioactivity, respectively.

breast tumor, BT 474 = assay: Established BT 474 breast tumors: antibody and/or cisplatin; type: in vivo, human tumor in SCID-beige mice; details: single IP injection once tumors reached 200 mm^2; antibody 1 mg/kg, cisplatin 2.5 mg/kg; Day 84
Method: The therapeutic effects of an anti-CD40 antibody (21.4.1) in preventing the growth of human breast tumors alone and in the presence of cisplatin was examined.
SCID-beige mice were injected SC with the breast tumor, BT 474. The antibody (1 mg/kg, IP) and/or cisplatin (2.5 mg/kg, IP) were administered as a single injection once tumors reached a size of 200 mm^2. Tumor growth was measured on Day 84 after challenge.

[4] = test system: unstimulated human whole blood; assay: Whole-blood cytokine release assay
Method: An anti-CD40 antibody (21.4.1) was tested for its ability to induce the release of cytokines from unstimulated human whole blood using an in vitro whole blood assay which correlates with induction of antibody-mediated cytokine release in humans. 21.4.1 was tested at 1, 10 and 100 μg/mL, along with a murine anti-human CD3 IgG1 as a positive control that induces cytokine release through an Fc mediated pathway, and LPS as a second positive control that induces cytokines by stimulating macrophages. The donors used included individuals that responded to both the murine antibody and LPS (4 donors), as well as individuals who only responded to the LPS (3 donors). Heparinized whole blood was cultured with 21.4.1 for 5 hours and plasma was collected and analyzed for tumor necrosis factor alpha (TNF-α), interferon gamma (INF-γ) and interleukin-6 (IL-6) by ELISA (using commercially available kits). Cultures were also incubated for 48 hours and analyzed for interleukin-1 beta (IL-1β).

cynomolgus B-cells = assay: Pharmacodynamics: B-cell surface marker upregulation after IV dosing (flow cytometry); type: in vivo, cynomolgus monkeys
Method: A CD40 antibody (21.4.1) was administered intravenously at various doses (1 mg/kg n=4, 3 mg/kg n=4, 5 mg/kg n=2 and 10 mg/kg n=2) to cynomolgus monkeys. Heparinized blood was drawn from the monkeys at various time points pre- and postdose. The blood was aliquoted and stained. Data were acquired using a Becton Dickinson FACSCalibur and analyzed with CellQuest software. Results were calculated as fold increases in median fluorescence intensity as compared to pre-dose values.

[5] = test system: lymph node cells obtained from cancer patients; assay: IFNγ producing cells by ELISPOT in lymph node cell cultures stimulated with tumor antigen; type: cell-based, human; details: antibody 1 μg/mL (6.7 nM); ELISPOT following restimulation
Source text: as §1, §2

[6] = test system: Fc receptors (FcR) on human peripheral blood leukocytes; assay: 125I-antibody binding to Fc receptors on human leukocytes; details: 125I-labelled antibody; 4° C., sodium azide; 21.4.1: excess unlabeled human IgG2 competitor, n=5 donors
Method: The binding of an anti-CD40 antibody (21.4.1) to Fc receptors on human and cynomolgus leukocytes was examined.
as §3, §4

[7] = test system: CD40 receptors on cynomolgus leukocytes; assay: 125I-21.4.1 binding to CD40 receptors on cynomolgus leukocytes; details: 500-fold excess unlabeled 21.4.1; total % specific binding minus % binding to FcR
Method: as §3, §4

T1 sequence (P25942 21-277): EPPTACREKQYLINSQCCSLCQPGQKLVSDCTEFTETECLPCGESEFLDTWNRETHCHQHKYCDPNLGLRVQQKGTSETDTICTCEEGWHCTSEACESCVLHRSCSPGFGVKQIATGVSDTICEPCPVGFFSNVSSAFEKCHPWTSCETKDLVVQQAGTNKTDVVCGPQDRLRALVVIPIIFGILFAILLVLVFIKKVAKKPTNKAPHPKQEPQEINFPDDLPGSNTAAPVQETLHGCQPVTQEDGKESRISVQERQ

With “21.4.1: human agonist anti-CD40 antibody; amino acid sequences SEQ ID NOs:5-8; hybridoma deposit PTA-3605” the “proliferation of lymph node cells in response to tumor antigen, enhancement” value [1] was 3-4 fold, the “mortality induced by systemically administered tumor cell line” value (B cell lymphoma Daudi) was “prevented mortality” and the “growth of Lovo tumor” value [2] was “not inhibited”. For the same substance, the “specific binding to CD40 receptors on human leukocytes” value [3] was 49%, the “tumor growth, single agent” value (breast tumor, BT 474) was “prevented tumor growth” and the IL-6 in plasma ([4]; 100 μg/mL, only one donor, 5 hours) was 90 pg/mL. For the same substance, the “cytokines in plasma of human blood” value ([4]; 1 or 10 μg/mL 21.4.1, ELISA) was “not detected”, the “elevation of INFγ or IL-1β” value ([4]; any of the samples, 1, 10 and 100 μg/mL) was “no elevation” and the “induction of TNF-α or IL-6 on re-test” value ([4]; same donor re-tested subsequently) was “no detectable induction”. The “CD23 expression on B-cells, increase vs pre-dose” value (cynomolgus B-cells; 24 hours after dosing, 3 mg/kg and 10 mg/kg IV) was no less than 20 fold, the “dose producing a saturating pharmacodynamic response in cynomolgus B-cells” value (cynomolgus B-cells; IV, MHC Class II and CD23 on CD20+ cells) was 1 mg/kg and the “CD71 (transferrin receptor) level” value (cynomolgus B-cells; after IV dosing) was “moderate upregulation”. The CD80 expression (cynomolgus B-cells; after IV dosing) was “did not change significantly”, the “CD86 costimulatory molecule level” value (cynomolgus B-cells; after IV dosing) was “moderate upregulation” and the “upregulation of both surface markers (MHC Class II, CD23) persisted, increase” value (cynomolgus B-cells; while 21.4.1 levels remained above 1 μg/ml) was no less than 2 fold. For the same substance, the “number of IFNγ+ positive T cells” value [5] was “enhanced”, the “specific binding to FcR on human leukocytes” value [6] was −1.0±8.5% and the “specific binding to CD40 receptors on cynomolgus leukocytes” value [7] was 67%.

Source: patent publication US20120263732A1, “CD40 ANTIBODY FORMULATION AND METHODS” (PFIZER INC., priority 2003, published 2012)
